The subject of one assay is βCatenin-BCL9. The experiment in a line: ELISA based protein-protein interaction assay. The following applies: inhibition class of the βCatenin-BCL9 interaction. The format is binding. As for the experimental part:
In vitro ELISA-based Protein-protein Interaction Assay
Protein Production in Bacteria
cDNAs including the binding domains of Lgs and βCatenin were fused downstream of glutathione-S-transferase (GST) cDNA in pGEX-4T inducible bacterial expression vector (Pharmacia). Fusion proteins were produced in BL21 bacteria (e.g. Stratagene) following manufacturer's recommendation.
To isolate the produced fusions protein bacteria were lysed in sonication buffer (10 mM Tris HCl pH 8.0, 150 mM NaCl, 1 mM EDTA, 1.5% sarkosyl, 2% Triton-X-100, 1 mM DTT and protease inhibitors), followed by short sonication on ice (e.g. 3 times 20 seconds at middle power) and centrifugation. Cleared supernatants were incubated under gentle rotation with glutathione beads (Amersham Pharmacia) for 2 hrs at 4° C. Finally, beads were washed several time in washing buffer (20 mM Tris pH 8.0, 200 mM NaCl, 1 mM EDTA, 1 mM DTT, 1 mM MgCl2, 0.5% NP40), and stored in storage buffer (20 mM Tris pH 8.0, 200 mM NaCl, 1 mM EDTA, 1 mM DTT, 1 mM MgCl2, 10% glycerol, 0.5% NP40, and proteinase inhibitors). The quality of the preparations was checked by SDS-gel electrophoresis by standard methods well known by persons skilled in the art. […]

The next assay has as its system Wnt pathway. Description: Cell Assay (CA): inhibition of Wnt activity in cancer cells, Tcf reporter gene. Type of assay: cell-based. Particulars: inhibition class in the Cell Assay. The text has this: Inhibition of Wnt Activity in Cancer Cells
The effect of β-catenin/BCL9 inhibitors identified in the ELISA-based protein-protein interaction assay on the Wnt pathway can be evaluated in a cell culture system using a reporter gene responsive to the Tcf/Lef family of transcription factors or by quantitative analysis of Wnt target genes in appropriate cell lines.
A reporter gene is a construct which comprises a readily detectable or assayable gene such β-galactosidase, green fluorescent protein, chloramphenicol acetyltransferase or luciferase, linked in cis to a transcription factor response element and a minimal promoter. Depending on the expression vectors used, this protocol can be applied, e.g. for mammalian as well as for Drosophila cell lines. For instance, colon cancer cells with constitutively active Wnt pathway like DLD-1 or SW620 (ATCC) are a well suitable system. Hereby, a Tcf-4 driven luciferase reporter plasmid (i.e. TOP-FLASH, Upstate biotechnology, New York, USA) is transiently or stably transfected into cells known in the art. Any means for introducing genetic material into cells can be used, including but not limited to infection, electroporation or transfection. For instance, to introduce DNA into DLD-1 cells, a lipofection agent like the Lipofectamine transfection reagent (Life Technologies, Inc.) can be used. By transient transfection protocols, a second reporter gene, e.g. the renilla luciferase reporter plasmid pRL-SV40 (Promega Corporation, Madison USA), needs to be co-transfected to normalize for transfection efficiency. Drugs are added to the media 24 h after trans-fection (transient transfection) or 24 h after seeding of the cells (stably transfected cells). Cell extracts are prepared 24 to 48 h later and assayed for reporter gene activity as described by the manufacturer (eg. for luciferase activity: Promega Corporation). Compounds reducing reporter gene activity more than 50% compared to solvent alone treated cells are considered as hits. In parallel, toxicity can be assessed for instance by the yellow tetrazolium salt cell proliferation assay (MTT) assay.
A general note: A reporter such as luciferase makes a cellular process visible.

SMILES strings stand for the structures.

In US8088772B2, “Sulfonamides and their use as a medicament” (The Genetics Company, Inc., priority 2006, dated 2012) one finds ELISA and CA data, which are given here for 15 molecules.

Turning to `O=C(NNc1ccc([N+](=O)[O-])cc1S(=O)(=O)Nc1ccccc1Cl)c1cc(Cl)cc(Cl)c1` [TGC0011568], in the assay with βCatenin-BCL9, the ELISA is listed as 1.5. Moreover, in the assay with Wnt pathway, the CA is reported as 4 (61-80% inhibition).
Turning to `Cc1cc(-c2ccccc2)nn1-c1ccc([N+](=O)[O-])cc1S(=O)(=O)Nc1ccccc1Cl` [TGC0011569], the ELISA in the assay with βCatenin-BCL9 was found to be 1.5. Moreover, in the assay with Wnt pathway, the CA is 4 (61-80% inhibition).
In the same order, the values of `Cc1cc(-c2ccccc2)n(-c2ccc([N+](=O)[O-])cc2S(=O)(=O)Nc2ccccc2Cl)n1` [TGC0011570] are 5 (81-100% inhibition) and 4 (61-80% inhibition).
For `Nc1ccc(NC(=O)Cc2ccc(Cl)cc2)c(S(=O)(=O)Nc2ccccc2Cl)c1` [TGC0011573] the same measures were 3 (41-60% inhibition) and 1 (0-20% inhibition).
For `O=C(Cc1ccc(Cl)cc1)Nc1ccc(N2CCOCC2)c(S(=O)(=O)Nc2ccccc2Cl)c1` [TGC0011574], in the assay on βCatenin-BCL9, the ELISA is listed as 3 (41-60% inhibition). Also, the CA in the assay with Wnt pathway was 2.5.
For `CC(=O)Nc1ccc(S(=O)(=O)NNc2ccc([N+](=O)[O-])cc2S(=O)(=O)Nc2ccccc2Cl)cc1` [TGC0011575] the same measures were 1 (0-20% inhibition) and 3 (41-60% inhibition).
For `O=[N+]([O-])c1ccc(NNS(=O)(=O)c2ccc(Cl)cc2)c(S(=O)(=O)Nc2ccccc2Cl)c1` [TGC0011576] the same measures were 3 (41-60% inhibition) and 5 (81-100% inhibition).
On to `CS(=O)(=O)c1ccc(S(=O)(=O)NNc2ccc([N+](=O)[O-])cc2S(=O)(=O)Nc2ccccc2Cl)cc1` [TGC0011577], for which, in the assay on βCatenin-BCL9, the ELISA is 4 (61-80% inhibition). The CA with Wnt pathway was 1 (0-20% inhibition).
For `CC(=O)c1ccc(S(=O)(=O)NNc2ccc([N+](=O)[O-])cc2S(=O)(=O)Nc2ccccc2Cl)cc1` [TGC0011581] the same measures were 2 (21-40% inhibition) and 1 (0-20% inhibition).
For `COc1ccc(/C=N/Nc2ccc(N)cc2S(=O)(=O)Nc2ccccc2Cl)cc1OC` [TGC0011584] the same measures were 1 (0-20% inhibition) and 3 (41-60% inhibition).
In the same order, the values of `O=C(O)c1ccc(CNNc2ccc([N+](=O)[O-])cc2S(=O)(=O)Nc2ccccc2Cl)cc1` [TGC0011589] are 5 (81-100% inhibition) and 4 (61-80% inhibition).
On to `COC(=O)c1ccccc1S(=O)(=O)Nc1ccccc1Cl` [TGC0011601], for which the ELISA in the assay on βCatenin-BCL9 was 1 (0-20% inhibition). Also, the CA in the assay on Wnt pathway is recorded as 1 (0-20% inhibition).
In the case of `O=[N+]([O-])c1ccc(NNCc2ccc(F)cc2)c(S(=O)(=O)Nc2ccccc2Cl)c1` [TGC0012257], the ELISA in the assay on βCatenin-BCL9 was 1 (0-20% inhibition). Moreover, the CA in the assay on Wnt pathway is reported as 1.5.
In the same order, the values of `O=[N+]([O-])c1ccc(NNCc2ccc3nonc3c2)c(S(=O)(=O)Nc2ccccc2Cl)c1` [TGC0012260] are 4.5 and 1.5.
Consider `O=[N+]([O-])c1ccc(NNCc2cc(F)cc(F)c2)c(S(=O)(=O)Nc2ccccc2Cl)c1` [TGC0012266], for which the ELISA in the assay on βCatenin-BCL9 was determined as 2.5. In addition, in the assay with Wnt pathway, the CA worked out at 1.5.
